The results in this text go back to ChEMBL document CHEMBL1130355, “Trypanocidal activity and redox potential of heterocyclic- and 2-hydroxy-naphthoquinones” (1997).

What all share (format): functional
For experiment [1], the species on record is Mus musculus. Kind of experiment: Tested for its ability to eliminate the infective trypomastigote form of Trypanosoma cruzi, Y strain present in blood of infected mice at the dose of 0.20 mM.
Experiment [2] is filed under the species Mus musculus. Kind of experiment: Tested for its ability to eliminate the infective trypomastigote form of Trypanosoma cruzi, Y strain present in blood of infected mice at the dose of 0.18 mM.
Experiment [3] is filed under the species Mus musculus. In words: Tested for its ability to eliminate the infective trypomastigote form of Trypanosoma cruzi, Y strain present in blood of infected mice at the dose of 0.23 mM.
The species entered for experiment [4] is Mus musculus. In words: Tested for its ability to eliminate the infective trypomastigote form of Trypanosoma cruzi, Y strain present in blood of infected mice at the dose of 0.22 mM.
Experiment [5] is filed under the species Mus musculus. Kind of experiment: Tested for its ability to eliminate the infective trypomastigote form of Trypanosoma cruzi, Y strain present in blood of infected mice at the dose of 0.21 mM.
For experiment [6], the species on record is Mus musculus. Kind of experiment: Tested for its ability to eliminate the infective trypomastigote form of Trypanosoma cruzi, Y strain present in blood of infected mice at the dose of 0.24 mM.
The species entered for experiment [7] is Mus musculus. In words: Tested for its ability to eliminate the infective trypomastigote form of Trypanosoma cruzi, Y strain present in blood of infected mice at the dose of 0.25 mM.
The species entered for experiment [8] is Mus musculus. In words: Tested for its ability to eliminate the infective trypomastigote form of Trypanosoma cruzi, Y strain present in blood of infected mice at the dose of 0.29 mM.
The species named for experiment [9] is Mus musculus. Kind of experiment: Tested for its ability to eliminate the infective trypomastigote form of Trypanosoma cruzi, Y strain present in blood of infected mice at the dose of 0.50 mM.
The species named for experiment [10] is Mus musculus. In words: Tested for its ability to eliminate the infective trypomastigote form of Trypanosoma cruzi, Y strain present in blood of infected mice at the dose of 0.12 mM.
The species entered for experiment [11] is Mus musculus. Kind of experiment: Tested for its ability to eliminate the infective trypomastigote form of Trypanosoma cruzi, Y strain present in blood of infected mice at the dose of 0.19 mM.

Molecules are shown by their SMILES.

As for `COc1cccc2c1C(=O)c1sccc1C2=O`, the Lysis in the experiment listed under Mus musculus [1] worked out at 26%.

Regarding `COc1ccc2c(c1OC)C(=O)c1sccc1C2=O`, the Lysis in the experiment filed under Mus musculus [2] stood at 19%.

In the experiment listed under Mus musculus [1], `COc1cccc2c1C(=O)c1ccsc1C2=O` yielded a Lysis of 0%.

In turn, `O=C1c2ccccc2C(=O)c2sccc21` [THIOPHENONAPHTHOQUINONE] registered a Lysis in the experiment filed under Mus musculus [3] of 13%.

As for `CCc1cc2c(o1)C(=O)c1ccccc1C2=O`, the Lysis in the experiment listed under Mus musculus [4] worked out at 24%.

Regarding `CC1(C)CCC2=C(O1)C(=O)c1ccccc1C2=O` [ALPHA-LAPACHONE], the Lysis in the experiment listed under Mus musculus [5] amounted to 48%.

With `CC(C)/C=C/C1=C(O)C(=O)c2ccccc2C1=O`, in the experiment listed under Mus musculus [5], the Lysis was determined as 81%.

`CC1(C)CCC2=C(O1)c1ccccc1C(=O)C2=O` [LAPACHONE] showed a Lysis in the experiment listed under Mus musculus [5] of 76%.

For the compound `COc1ccc2c(c1)C(=O)c1ccsc1C2=O`, the Lysis in the experiment filed under Mus musculus [1] is reported as 9%.

Consider `Cc1cc2c(o1)C(=O)c1ccccc1C2=O`, for which the Lysis in the experiment filed under Mus musculus [6] amounted to 18%.

On to `COc1cc(OC)c2c(c1)C(=O)c1sccc1C2=O`, for which the Lysis in the experiment listed under Mus musculus [2] came to 19%.

`O=C1c2ccccc2C(=O)c2occc21` came in with a Lysis in the experiment filed under Mus musculus [7] of 33%.

In the case of `CCc1cc2c(o1)-c1ccccc1C(=O)C2=O`, in the experiment listed under Mus musculus [4], the Lysis stood at 94%.

As to `COc1cccc2c1C(=O)c1ccoc1C2=O`, in the experiment listed under Mus musculus [4], the Lysis was determined as 52%.

Regarding `CC(C)=CCC1=C(O)C(=O)c2ccccc2C1=O` [LAPACHOL], the Lysis in the experiment filed under Mus musculus [5] is listed as 65%.

`O=C1C=C(O)C(=O)c2ccccc21` [LAWSONE] returned a Lysis in the experiment filed under Mus musculus [8] of 76%.

Compound `O=C1C(=O)c2ccoc2-c2ccccc21` returned a Lysis in the experiment listed under Mus musculus [9] of 100%.

In turn, `CC(C)c1cc2c(o1)-c1ccccc1C(=O)C2=O` displayed a Lysis in the experiment listed under Mus musculus [5] of 94%.

Turning to `CN(C)c1ccc(C(=C2C=CC(=[N+](C)C)C=C2)c2ccc(N(C)C)cc2)cc1.[Cl-]` [GENTIAN VIOLET], the Lysis in the experiment listed under Mus musculus [10] is reported as 100%.

`CC(C)c1cc2c(o1)C(=O)c1ccccc1C2=O` yielded a Lysis in the experiment listed under Mus musculus [5] of 88%.

As to `O=C1c2ccccc2C(=O)c2sc([N+](=O)[O-])cc21`, the Lysis in the experiment filed under Mus musculus [11] is recorded as 54%.

For `CC/C=C/C1=C(O)C(=O)c2ccccc2C1=O`, the Lysis in the experiment filed under Mus musculus [4] is given as 68%.
